In brackets after ≈: the same amount, converted by molar mass. Structures can show the parent of a compound that is named as a salt. Where two headings read alike, the source gives them in different places.
Experiments:
[1] = tested on: Candida albicans (Robin) Berkhout No 20/M; test: Pseudomycelium and mycelium phase test with Candida albicans (minimal inhibitory concentration, 100 % inhibition); type: cell-based; conditions: microaerophilic, 2 days, 37°C; for MIC: Candida albicans, 48 h, read-out: MHKMyzelph.
From the text: Pseudomyzel- und Myzelphasentest mit Candida albicans: • Dieser Test berücksichtigt, daß C. albicans in vivo nicht nur Sproßzellen, sondern auch Pseudomyzel und echtes Myzel ausbilden kann (Dimorphie). In vitro wird die Ausbildung aller Wachstumsphasen dieses Keimes und der Einfluß von antimyzetisch wirksamen Substanzen in folgender Weise geprüft: Candida albicans (Robin) Berkhout No 20/M (Stamm der Mykothek, Nordmark-Werke GmbH) wird mit der Impföse einerseits auf die Oberfläche A des Nährmediums (Brain Heart Infusion, Difco) und andererseits bei B als Stichkultur angeimpft (Figur).
Im Bereich der Stichkultur wird zusätzlich ein Deckglas C aufgelegt (mikroaerophile Bedingungen). Die Petrischale D enthält im Nährmedium eine geometrisch abgestufte Verdünnungsreihe der jeweiligen Prüfsubstanz. Nach Inkubation dieser Testplatten (2 Tage, 37°C) sind in präparatefreien Kontrollplatten im aeroben Berzirk A ausschließlich Sproßzellen (Hefephase), im mikroaerophilen Bezirk B ausschließlich Pseudohyphen und echte Hyphen gewachsen.
Als minimale Hemmkonzentrationen wurden diejenigen Konzentrationsstufen des Prüfpräparates bezeichnet, bei denen eine 100 %ige Hemmung des jeweiligen Pilzwachstums zu beobachten war.
Diese Testanordnung ermöglicht es, zwischen der minimalen Hemmkonzentration der Hefephase (MHKHefephase) ) und der MHK der Pseudomyzelphase bzw. M^yzelphase (MHKMyzelDhase) für Candida albicans zu unterscheiden.
Während die MHK-Werte für die Hefephase bei über 128 µg/ml liegen, ergeben sich für die Mycelphase äußerst niedrige MHK-Werte, wie aus der Tabelle 1 hervorgeht.

[2] = Acute oral toxicity (LD50) in the mouse; type: in vivo; conditions: for LD50: mouse, in vivo, po, Maus
[3] = tested on: M. ferrugineum; test: Agar dilution test against dermatophytes; type: cell-based; conditions: M. ferrugineum No. 5; read-out: MHK
From the text: (§1) Die antimikrobielle Wirksamkeit in vitro gegen Dermatophyt wurde im Agar-Dilutionstest (Lit.: P. Klein "Bakteriologische Grundlagen der chemotherapeutischen Laboratoriumspraxis") ermittelt. Das Ergebnis dieser Untersuchungen am Beispiel der Verbindung Nr. 3 zeigt Tabelle 2.

[4] = tested on: M. canis; test: Agar dilution test against dermatophytes; type: cell-based; conditions: Microsporum canis, read-out: MHK
From the text: as §1

[5] = tested on: M. audouinii; test: Agar dilution test against dermatophytes; type: cell-based; conditions: Microsporum audouinii; M. audouinii No. 4; read-out: MHK
From the text: as §1

[6] = tested on: T. mentagroph.; test: Agar dilution test against dermatophytes; type: cell-based
From the text: as §1

[7] = tested on: T. violaceum; test: Agar dilution test against dermatophytes; type: cell-based; conditions: Trichophyton violaceum; T. violaceum No. 10; read-out: MHK
From the text: as §1

[8] = tested on: T. schoenleinii; test: Agar dilution test against dermatophytes; type: cell-based; conditions: T. schoenleinii No. 9; read-out: MHK
From the text: as §1

[9] = tested on: E. floccosum; test: Agar dilution test against dermatophytes; type: cell-based; conditions: Epidermophyton floccosum; E. floccosum No. 157; read-out: MHK
From the text: as §1

## OC(Cn1cncn1)(c1ccc(Cl)cc1)c1ccc(Cl)cc1 [Beispiel 1, 1,1-Bis-(4-chlorphenyl)-2-(1.2.4-triazol-1-yl)--äthan-1-ol]
[1]
  MIC: < 0.125 µg/mL
[2]
  LD50: > 1000 mg/kg

## OC(Cn1cncn1)(c1ccc(Cl)cc1)c1ccc(Cl)cc1 [Beispiel 2, 1,1-Bis-(4-chlorphenyl)-2-(1.2.4-triazol-1-yl)--äthan-1-ol-hydrochlorid]
[1]
  MHKMyzelph.: <0,125 µg/ml
[2]
  LD50 (Maus) p.o.: >1000 mg/kg

## OC(Cn1cncn1)(c1ccc(Cl)cc1)c1ccc(Cl)cc1Cl (centres unmarked) [Beispiel 3, 1-(4-Chlorphenyl)-1-(2,4-dichlorphenyl)-2-(1,2,4-triazol-1-yl)-äthan-1-ol]
[1]
  MIC: < 0.125 µg/mL
[3]
  MIC: 0.5 µg/mL (≈ 1.36 µM)
[4]; M. canis No. 167
  MIC: 4 µg/mL (≈ 10.9 µM)
[4]; M. canis No. 168
  MIC: 2 µg/mL (≈ 5.43 µM)
[4]; M. canis No. 169
  MIC: 8 µg/mL (≈ 21.7 µM)
[5]
  MIC: 0.25 µg/mL (≈ 0.678 µM)
[6]; T. mentagroph. No. 172, read-out: MHK
  MIC: 0.25 µg/mL (≈ 0.678 µM)
[6]; T. mentagroph. No. 173
  MHK: 0,25 µg/ml
[7]
  MIC: 2 µg/mL (≈ 5.43 µM)
[8]
  MIC: 0.25 µg/mL (≈ 0.678 µM)
[9]
  MIC: 16 µg/mL (≈ 43.4 µM)
[2]
  LD50 (Maus) p.o.: >4000 mg/kg

## OC(Cn1cncn1)(c1ccc(Cl)cc1)c1ccc(Cl)cc1Cl (centres unmarked) [Beispiel 4, 1-(4-Chlorphenyl)-1-(2,4-dichlorphenyl)-2-(1.2.4--triazol-1-yl)-äthan-1-ol-hydrochlorid]
[1]
  MHKMyzelph.: <0,125 µg/ml
[2]
  LD50 (Maus) p.o.: >1000 mg/kg

## OC(Cn1cncn1)(c1ccc(Cl)cc1)c1ccc(Cl)cc1Cl (centres unmarked) [Beispiel 5, 1-(4-Chlorphenyl)-1-(2,4-dichlorphenyl)-2-(1.2.4--triazol-1-yl)-äthan-1-ol-nitrat]
[1]
  MHKMyzelph.: <0,125 µg/ml
[2]
  LD50 (Maus) p.o.: >1000 mg/kg

## OC(Cn1cncn1)(c1ccccc1)c1ccccc1Cl (centres unmarked) [Beispiel 6, 1-Phenyl-1-(2-chlorphenyl)-2-(1.2.4-triazol-1-yl)--äthan-1-ol-hydrochlorid]
[1]
  MIC: < 0.125 µg/mL
[2]
  LD50: > 1000 mg/kg

## OC(Cn1cncn1)(c1ccccc1)c1ccc(Cl)cc1 (centres unmarked) [Beispiel 7, 1-Phenyl-1-(4-chlorphenyl)-2-(1.2.4-triazol-1-yl)-äthan--1-ol-hydrochlorid]
[2]
  LD50 (Maus) p.o.: >1000 mg/kg

## OC(Cn1cncn1)(c1ccccc1)c1ccc(Cl)cc1 (centres unmarked) [Beispiel 8, 1-Phenyl-1-(4-chlorphenyl)-2-(1.2.4-triazol-1-yl)--äthan-1-ol-nitrat]
[1]
  MIC: < 0.125 µg/mL
[2]
  LD50: > 1000 mg/kg

## OC(Cn1cncn1)(c1ccccc1)c1ccc(Cl)cc1Cl (centres unmarked) [Beispiel 9, 1-Phenyl-1-(2,4-dichlorphenyl)-2-(1.2.4-triazol-1-yl)--äthan-1-ol]
[1]
  MIC: < 0.125 µg/mL
[2]
  LD50: > 1000 mg/kg

## OC(Cn1cncn1)(c1ccccc1)c1ccc(Cl)cc1Cl (centres unmarked) [Beispiel 10, 1-Phenyl-1-(2,4-dichlorphenyl)-2-(1.2.4-triazol-1-yl)--äthan-1-ol-hydrochlorid]
[1]
  MHKMyzelph.: <0,125 µg/ml
[2]
  LD50 (Maus) p.o.: >1000 mg/kg

## OC(Cn1cncn1)(c1ccccc1)c1ccc(Cl)cc1Cl (centres unmarked) [Beispiel 11, 1-Phenyl-1-(2,4-dichlorphenyl)-2-(1.2.4-triazol-1-yl)--äthan-1-ol-nitrat]
[1]
  MHKMyzelph.: <0,125 µg/ml
[2]
  LD50 (Maus) p.o.: >1000 mg/kg

## OC(Cn1cncn1)(c1ccc(Cl)cc1)c1ccccc1Cl (centres unmarked) [Beispiel 12, 1-(2-Chlorphenyl)-1-(4-chlorphenyl)-2-(1.2.4-triazol--1-yl)-äthan-1-ol-hydrochlorid]
[1]
  MIC: 1 µg/mL
[2]
  LD50: > 1000 mg/kg

## OC(Cn1cncn1)(c1ccccc1Cl)c1ccc(Cl)cc1Cl (centres unmarked) [Beispiel 13, 1-(2-Chlorphenyl)-1-(2,4-dichlorphenyl)-2-(1.2.4-triazol-1-yl)-äthan-1-ol]
[1]
  MIC: 1 µg/mL (≈ 2.71 µM)
[2]
  LD50: > 1000 mg/kg

## OC(Cn1cncn1)(c1ccccc1Cl)c1ccc(Cl)cc1Cl (centres unmarked) [Beispiel 14, 1-(2-Chlorphenyl)-1-(2,4-dichlorphenyl)-2-(1.2.4-triazol-1-yl)-äthan-1-ol-hydrochlorid]
[1]
  MHKMyzelph.: 1 µg/mL
[2]
  LD50 (Maus) p.o.: >1000 mg/kg

## OC(Cn1cncn1)(c1cccc(Cl)c1)c1ccc(Cl)cc1Cl (centres unmarked) [Beispiel 15, 1-(3-Chlorphenyl)-1-(2,4-dichlorphenyl)-2-(1.2.4-triazol-1-yl)-äthan-1-ol]
[1]
  MHKMyzelph.: <0,125 µg/ml
[2]
  LD50: > 1000 mg/kg

## OC(Cn1cncn1)(c1cccc(Cl)c1)c1ccc(Cl)cc1Cl (centres unmarked) [Beispiel 16, 1-(3-Chlorphenyl)-1-(2,4-dichlorphenyl)-2-(1.2.4-triazol-1-yl)-äthan-1-ol-hydrochlorid]
[1]
  MHKMyzelph.: 1 µg/mL
[2]
  LD50 (Maus) p.o.: >1000 mg/kg

Reference: patent publication EP0036153A1, “1,1-Diphenyl-2-(1,2,4-triazol-1-yl)-ethan-1-oles as antimycotic agents” (BASF Aktiengesellschaft, priority 1980, dated 1981)
